For 22 compounds, IC50 results are on record in patent US20260062443A1 (ALEXION PHARMACEUTICALS, INC., priority 2022, published 2026).

This test addresses T1, Human complement C1s enzyme (Homo sapiens, UniProt P09871).
T1 sequence (P09871 438-688 limits assumed): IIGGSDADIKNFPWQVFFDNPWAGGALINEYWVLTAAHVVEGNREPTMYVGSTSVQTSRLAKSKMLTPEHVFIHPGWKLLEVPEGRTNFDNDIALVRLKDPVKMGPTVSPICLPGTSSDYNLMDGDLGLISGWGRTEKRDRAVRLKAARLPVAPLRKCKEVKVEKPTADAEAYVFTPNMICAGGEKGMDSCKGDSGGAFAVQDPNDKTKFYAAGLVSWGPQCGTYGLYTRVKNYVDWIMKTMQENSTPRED
T1 sequence (P09871 16-437 partner limits assumed): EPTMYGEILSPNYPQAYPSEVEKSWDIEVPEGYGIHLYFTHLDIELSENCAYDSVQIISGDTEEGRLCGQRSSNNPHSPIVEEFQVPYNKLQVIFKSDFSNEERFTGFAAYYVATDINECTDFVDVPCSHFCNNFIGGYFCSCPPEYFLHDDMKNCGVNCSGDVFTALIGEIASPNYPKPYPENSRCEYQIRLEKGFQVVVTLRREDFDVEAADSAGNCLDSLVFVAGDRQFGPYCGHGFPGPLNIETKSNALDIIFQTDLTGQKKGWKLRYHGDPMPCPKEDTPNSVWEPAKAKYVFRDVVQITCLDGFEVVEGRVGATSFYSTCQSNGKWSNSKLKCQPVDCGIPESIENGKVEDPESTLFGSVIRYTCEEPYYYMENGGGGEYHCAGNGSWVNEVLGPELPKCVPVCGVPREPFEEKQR
The experiment in a line: Human C1s enzyme assay. The class given is biochemical. The settings on record: human complement C1s enzyme 1.16 nM, substrate Z-L-Lys-SBzl 100 μM, 5 min preincubation; read-out: IC50 (Stars), C1s Inhibiting Activity. In outline: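 IC50 from nonlinear regression of reaction rates versus compound concentration, with rates taken from A405 recorded at 30 s intervals over 30 min after adding 100 μM Z-L-Lys-SBzl plus 100 μM DTNB. Enzyme was human C1s purified from serum, 1.16 nM, given 5 min compound preincubation at room temperature, pH 7.5 Tris/1 M NaCl.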

For the compound `Cc1ccc(Oc2cccc(C(=O)NCC(=O)N3C[C@H](OC(F)F)C[C@H]3C(=O)NCc3cc4c(s3)CCNC4)c2)c(F)c1` [Compound 338, (2S,4R)-4-(difluoromethoxy)-1-((3-(2-fluoro-4-methylphenoxy)benzoyl)glycyl)-N-((4,5,6,7-tetrahydrothieno[3,2-c]pyridin-2-yl)methyl) pyrrolidine-2-carboxamide], the IC50 is < 100 nM.

For the compound `Cc1ccc(Oc2cccc(C(=O)NCC(=O)N3C[C@H](OC(F)F)C[C@H]3C(=O)NCc3cc4c(s3)CNCC4)c2)c(F)c1` [Compound 339, (2S,4R)-4-(difluoromethoxy)-1-((3-(2-fluoro-4-methylphenoxy)benzoyl)glycyl)-N-((4,5,6,7-tetrahydrothieno[2,3-c]pyridin-2-yl)methyl) pyrrolidine-2-carboxamide], the IC50 is < 100 nM.

Take `CN1CCc2cc(CNC(=O)[C@@H]3C[C@@H](OC(F)F)CN3C(=O)CNC(=O)c3ccc4c(c3)Oc3ccccc3S4)sc2C1` [Compound 346, (2S,4R)-4-(difluoromethoxy)-N-((6-methyl-4,5,6,7-tetrahydrothieno[2,3-c]pyridin-2-yl)methyl)-1-((phenoxathiine-3-carbonyl)glycyl) pyrrolidine-2-carboxamide]: the IC50 was > 1000 nM.

In the case of `CN1CCc2sc(CNC(=O)[C@@H]3C[C@@H](OC(F)F)CN3C(=O)CNC(=O)c3ccc4c(c3)Oc3ccccc3S4)cc2C1` [Compound 347, (2S,4R)-4-(difluoromethoxy)-N-((5-methyl-4,5,6,7-tetrahydrothieno[3,2-c]pyridin-2-yl)methyl)-1-((phenoxathiine-3-carbonyl)glycyl) pyrrolidine-2-carboxamide], the IC50 was > 1000 nM.

As to `O=C(NCC(=O)N1C[C@H](OC(F)F)C[C@H]1C(=O)NCc1cc2cnccc2[nH]1)c1cc2c(cc1F)Sc1ccccc1O2` [Compound 355, (2S,4R)-N-((1H-pyrrolo[3,2-c]pyridin-2-yl)methyl)-4-(difluoromethoxy)-1-((2-fluorophenoxathiine-3-carbonyl)glycyl)pyrrolidine-2-carboxamide], the IC50 was < 100 nM.

With `O=C(NCC(=O)N1C[C@H](OC(F)F)C[C@H]1C(=O)NCc1cc2cnccc2[nH]1)c1ccc2c(c1)OCCS2` [Compound 356, (2S,4R)-N-((1H-pyrrolo[3,2-c]pyridin-2-yl)methyl)-4-(difluoromethoxy)-1-((2,3-dihydrobenzo[b][1,4]oxathiine-7-carbonyl)glycyl)pyrrolidine-2-carboxamide], the IC50 is < 100 nM.

On to `CC(c1cccc(F)c1)c1ccc(C(=O)NCC(=O)N2CC3(C[C@H]2C(=O)NCc2cc4cnccc4[nH]2)OCCO3)s1` (stereo partly drawn) [Compound 357, (8S)-N-((1H-pyrrolo[3,2-c]pyridin-2-yl)methyl)-7-((5-(1-(3-fluorophenyl)ethyl)thiophene-2-carbonyl)glycyl)-1,4-dioxa-7-azaspiro[4.4]nonane-8-carboxamide], for which the IC50 was in the range of 100 to 1000 nM.

As for `Cc1ccc(Oc2cccc(C(=O)NCC(=O)N3C[C@H](OC(F)F)C[C@H]3C(=O)NCc3cc4cnccc4[nH]3)c2)s1` [Compound 366, (2S,4R)-N-((1H-pyrrolo[3,2-c]pyridin-2-yl)methyl)-4-(difluoromethoxy)-1-((3-((5-methylthiophen-2-yl)oxy)benzoyl)glycyl)pyrrolidine-2-carboxamide], the half-maximal inhibitory concentration (IC50) is < 100 nM.

On to `COC[C@H]1C[C@@H](C(=O)NCc2cc3cnccc3[nH]2)N(C(=O)CNC(=O)c2cccc(Oc3ccc(C)cc3F)c2)C1` [Compound 367, (2S,4S)-N-((1H-pyrrolo[3,2-c]pyridin-2-yl)methyl)-1-((3-(2-fluoro-4-methylphenoxy)benzoyl)glycyl)-4-(methoxymethyl)pyrrolidine-2-carboxamide], for which the IC50 was < 100 nM.

Take `CCc1ccc(Oc2cccc(C(=O)NCC(=O)N3C[C@H](OC(F)F)C[C@H]3C(=O)NCc3cc4cnccc4[nH]3)c2)s1` [Compound 368, (2S,4R)-4-(difluoromethoxy)-1-[2-[[3-[(5-ethyl-2-thienyl)oxy]benzoyl]amino]acetyl]-N-(1H-pyrrolo[3,2-c]pyridin-2-ylmethyl)pyrrolidine-2-carboxamide]: the IC50 is < 100 nM.

For the compound `O=C(NCC(=O)N1C[C@H](OC(F)F)C[C@H]1C(=O)NCc1cc2cnccc2[nH]1)c1ccc2oc3cccc(F)c3c2c1` [Compound 369, (2S,4R)-N-((1H-pyrrolo[3,2-c]pyridin-2-yl)methyl)-4-(difluoromethoxy)-1-((9-fluorodibenzo[b,d]furan-2-carbonyl)glycyl)pyrrolidine-2-carboxamide], the IC50 was < 100 nM.

As for `CCc1ccc(Oc2cc(F)cc(C(=O)NCC(=O)N3C[C@H](OC(F)F)C[C@H]3C(=O)NCc3cc4cnccc4[nH]3)c2)cc1` [Compound 370, (2S,4R)-N-((1H-pyrrolo[3,2-c]pyridin-2-yl)methyl)-4-(difluoromethoxy)-1-((3-(4-ethylphenoxy)-5-fluorobenzoyl)glycyl)pyrrolidine-2-carboxamide], the IC50 is < 100 nM.

Take `CCc1ccc(Oc2cc(F)cc(C(=O)NCC(=O)N3[C@H]4C[C@@]4(C)C[C@H]3C(=O)NCc3cc4cnccc4[nH]3)c2)cc1` [Compound 371, (1S,3S,5S)-N-((1H-pyrrolo[3,2-c]pyridin-2-yl)methyl)-2-((3-(4-ethylphenoxy)-5-fluorobenzoyl)glycyl)-5-methyl-2-azabicyclo[3.1.0]hexane-3-carboxamide]: the half-inhibitory concentration (IC50) was < 100 nM.

Turning to `CCc1ccc(Oc2cc(F)cc(C(=O)NCC(=O)N3C[C@@](F)(Cn4ccnc4)C[C@H]3C(=O)NCc3cc4cnccc4[nH]3)c2)cc1` [Compound 372, (2S,4S)-4-((1H-imidazol-1-yl)methyl)-N-((1H-pyrrolo[3,2-c]pyridin-2-yl)methyl)-1-((3-(4-ethylphenoxy)-5-fluorobenzoyl)glycyl)-4-fluoropyrrolidine-2-carboxamide], the IC50 is < 100 nM.

Turning to `C[C@@]12C[C@@H]1N(C(=O)CNC(=O)c1ccc(Oc3ccccc3)cc1)[C@H](C(=O)NCc1ccc(Cl)cc1)C2` [Compound 373, (1S,3S,5S)-N-(4-chlorobenzyl)-5-methyl-2-((4-phenoxybenzoyl)glycyl)-2-azabicyclo[3.1.0]hexane-3-carboxamide], the IC50 is > 1000 nM.

As to `Cc1ccc(Oc2cccc(C(=O)NCC(=O)N3C[C@H](OC(F)F)C[C@H]3C(=O)NCc3c(C)cc(N)nc3C)c2F)cc1` [Compound 374, (2S,4R)-N-((6-amino-2,4-dimethylpyridin-3-yl)methyl)-4-(difluoromethoxy)-1-((2-fluoro-3-(p-tolyloxy)benzoyl)glycyl) pyrrolidine-2-carboxamide], the half-maximal inhibitory concentration (IC50) is > 1000 nM.

On to `Cc1ccc(Oc2cccc(C(=O)NCC(=O)N3N=CC[C@H]3C(=O)NCc3cc4cnccc4[nH]3)c2F)cc1` [Compound 375, (S)-N-((1H-pyrrolo[3,2-c]pyridin-2-yl)methyl)-1-((2-fluoro-3-(p-tolyloxy)benzoyl)glycyl)-4,5-dihydro-1H-pyrazole-5-carboxamide], for which the IC50 was < 100 nM.

As to `Cc1ccc(Oc2cccc(C(=O)NCC(=O)N3C[C@H](OC(F)F)C[C@H]3C(=O)Nc3cc4cnccc4s3)c2F)cc1` [Compound 376, (2S,4R)-4-(difluoromethoxy)-1-((2-fluoro-3-(p-tolyloxy)benzoyl)glycyl)-N-(thieno[3,2-c]pyridin-2-yl)pyrrolidine-2-carboxamide], the IC50 is > 1000 nM.

With `O=C(NCC(=O)N1C[C@H](OC(F)F)C[C@H]1C(=O)NCc1cc2cnccc2[nH]1)c1cc(-c2ccc(Cl)cc2)cs1` [Compound 377, (2S,4R)-N-((1H-pyrrolo[3,2-c]pyridin-2-yl)methyl)-1-((4-(4-chlorophenyl)thiophene-2-carbonyl)glycyl)-4-(difluoromethoxy)pyrrolidine-2-carboxamide], the IC50 is < 100 nM.

On to `O=C(NCC(=O)N1C[C@H](OC(F)F)C[C@H]1C(=O)NCc1cc2cnccc2[nH]1)c1cccc(N2Cc3ccccc3C2)c1` [Compound 378, (2S,4R)-N-((1H-pyrrolo[3,2-c]pyridin-2-yl)methyl)-4-(difluoromethoxy)-1-((3-(isoindolin-2-yl)benzoyl)glycyl)pyrrolidine-2-carboxamide], for which the IC50 was < 100 nM.

On to `O=C(NCC(=O)N1C[C@H](OC(F)F)C[C@H]1C(=O)NCc1cc2cnccc2[nH]1)c1cc(-c2ccccc2)cs1` [Compound 379, (2S,4R)-N-((1H-pyrrolo[3,2-c]pyridin-2-yl)methyl)-4-(difluoromethoxy)-1-((4-phenylthiophene-2-carbonyl)glycyl)pyrrolidine-2-carboxamide], for which the IC50 was < 100 nM.

For `O=C(NCC(=O)N1C[C@H](OC(F)F)C[C@H]1C(=O)NCc1cc2cnccc2[nH]1)c1cncc(N2CCOCC2)n1` [Compound 380, N-(2-((2S,4R)-2-(((1H-pyrrolo[3,2-c]pyridin-2-yl)methyl)carbamoyl)-4-(difluoromethoxy)pyrrolidin-1-yl)-2-oxoethyl)-6-morpholinopyrazine-2-carboxamide], the IC50 is > 1000 nM.

By IC50 is commonly meant the point on the concentration scale where inhibition reaches its midpoint.
